In brackets after ≈: the same amount, converted by molar mass.
What was measured:
Format in all cases: functional
[1] = tested on: Haemophilus influenzae; experiment: Antimicrobial activity against azithromycin-susceptible and ampicillin-resistant Haemophilus influenzae 11P037 incubated for 20 to 24 hrs by two-fold microbroth dilution method
[2] = tested on: Streptococcus pneumoniae; experiment: Antimicrobial activity against Streptococcus pneumoniae 07P390 expressing constitutive ermB incubated for 20 to 24 hrs by two-fold microbroth dilution method
[3] = tested on: Streptococcus pneumoniae; experiment: Antimicrobial activity against erythromycin-susceptible Streptococcus pneumoniae ATCC 49619 incubated for 20 to 24 hrs by two-fold microbroth dilution method
[4] = tested on: Staphylococcus aureus; experiment: Antimicrobial activity against methicillin-resistant Staphylococcus aureus PU32 expressing inducible ermA incubated for 20 hrs by two-fold microbroth dilution method; details: PU32, 20 h
[5] = tested on: Streptococcus pneumoniae; experiment: Antimicrobial activity against penicillin-susceptible Streptococcus pneumoniae PU09 incubated for 20 to 24 hrs by two-fold microbroth dilution method
[6] = tested on: Streptococcus pyogenes; experiment: Antimicrobial activity against Streptococcus pyogenes 01-968 expressing inducible ermA incubated for 20 to 24 hrs by two-fold microbroth dilution method
[7] = tested on: Staphylococcus aureus; experiment: Antimicrobial activity against methicillin-resistant Staphylococcus aureus PU20 expressing constitutive ermC incubated for 20 hrs by two-fold microbroth dilution method; details: PU20, 20 h
[8] = tested on: Streptococcus pyogenes; experiment: Bactericidal activity against Streptococcus pyogenes 12-207 expressing mef incubated for 20 to 24 hrs followed by sub-culturing for 24 hrs in absence of compound
[9] = tested on: Staphylococcus aureus; experiment: Bactericidal activity against methicillin-resistant Staphylococcus aureus PU32 expressing inducible ermA incubated for 20 hrs followed by sub-culturing for 24 hrs in absence of compound
[10] = tested on: Haemophilus influenzae; experiment: Bactericidal activity against azithromycin-susceptible and ampicillin-resistant Haemophilus influenzae 11P037 incubated for 20 to 24 hrs followed by sub-culturing for 24 hrs in absence of compound
[11] = tested on: Streptococcus pyogenes; experiment: Ratio of MBC to MIC against Streptococcus pyogenes 12-207 expressing mef
[12] = tested on: Staphylococcus aureus; experiment: Ratio of MBC to MIC against methicillin-resistant Staphylococcus aureus PU32 expressing inducible ermA
[13] = tested on: Streptococcus pyogenes; experiment: Antimicrobial activity against Streptococcus pyogenes 12-207 expressing mef incubated for 20 to 24 hrs by two-fold microbroth dilution method
[14] = tested on: Moraxella catarrhalis; experiment: Bactericidal activity against erythromycin-susceptible Moraxella catarrhalis 11B366 incubated for 20 hrs followed by sub-culturing for 24 hrs in absence of compound
[15] = tested on: Moraxella catarrhalis; experiment: Ratio of MBC to MIC against erythromycin-susceptible Moraxella catarrhalis 11B366
[16] = tested on: Streptococcus pyogenes; experiment: Ratio of MBC to MIC against Streptococcus pyogenes 01-968 expressing inducible ermA
[17] = tested on: Haemophilus influenzae; experiment: Ratio of MBC to MIC against azithromycin-susceptible and ampicillin-resistant Haemophilus influenzae 11P037
[18] = tested on: Streptococcus pyogenes; experiment: Bactericidal activity against Streptococcus pyogenes 01-968 expressing inducible ermA incubated for 20 to 24 hrs followed by sub-culturing for 24 hrs in absence of compound
[19] = tested on: Moraxella catarrhalis; experiment: Antimicrobial activity against erythromycin-susceptible Moraxella catarrhalis 11B366 incubated for 20 hrs by two-fold microbroth dilution method; details: 11B366, 20 h
[20] = tested on: Streptococcus pneumoniae; experiment: Ratio of MBC to MIC against penicillin-susceptible Streptococcus pneumoniae PU09
[21] = tested on: Staphylococcus aureus; experiment: Ratio of MBC to MIC against methicillin-resistant Staphylococcus aureus PU20 expressing constitutive ermC
[22] = tested on: Streptococcus pneumoniae; experiment: Ratio of MBC to MIC against erythromycin-susceptible Streptococcus pneumoniae ATCC 49619
[23] = tested on: Streptococcus pneumoniae; experiment: Bactericidal activity against erythromycin-susceptible Streptococcus pneumoniae ATCC 49619 incubated for 20 to 24 hrs followed by sub-culturing for 24 hrs in absence of compound
[24] = tested on: Streptococcus pneumoniae; experiment: Bactericidal activity against penicillin-susceptible Streptococcus pneumoniae PU09 incubated for 20 to 24 hrs followed by sub-culturing for 24 hrs in absence of compound
[25] = tested on: Staphylococcus aureus; experiment: Bactericidal activity against methicillin-resistant Staphylococcus aureus PU20 expressing constitutive ermC incubated for 20 hrs followed by sub-culturing for 24 hrs in absence of compound

## CC[C@H]1OC(=O)[C@H](C)[C@@H](OC(=O)Cc2ccccn2)[C@H](C)[C@@H](O[C@@H]2O[C@H](C)C[C@H](N(C)C)[C@H]2O)[C@](C)(OC)C[C@@H](C)/C(=N\OCC#Cc2ccc(NC(=O)Cc3ccccn3)nc2)[C@H](C)[C@H]2OC(=O)O[C@@]21C
[1]
  MIC: > 64 µg/mL
[2]
  MIC: 1 µg/mL (≈ 1 µM)
[3]
  MIC: 0.062 µg/mL (≈ 0.0621 µM)
[4]
  MIC: 4 µg/mL (≈ 4 µM)
[5]
  MIC: 1 µg/mL (≈ 1 µM)
[6]
  MIC: 4 µg/mL (≈ 4 µM)
[7]
  MIC: > 64 µg/mL

## CC[C@H]1OC(=O)[C@H](C)[C@@H](OC(=O)Cc2ccccn2)[C@H](C)[C@@H](O[C@@H]2O[C@H](C)C[C@H](N(C)C)[C@H]2O)[C@](C)(OC)C[C@@H](C)/C(=N\OCC#Cc2cccc(NC(=O)Cc3ccccn3)n2)[C@H](C)[C@H]2OC(=O)O[C@@]21C
[1]
  MIC: > 64 µg/mL
[2]
  MIC: 1 µg/mL (≈ 1 µM)
[3]
  MIC: 0.125 µg/mL (≈ 0.125 µM)
[4]
  MIC: 2 µg/mL (≈ 2 µM)
[5]
  MIC: 2 µg/mL (≈ 2 µM)
[6]
  MIC: 4 µg/mL (≈ 4 µM)
[7]
  MIC: > 64 µg/mL

## CC[C@H]1OC(=O)[C@H](C)[C@@H](OC(=O)Cc2ccccn2)[C@H](C)[C@@H](O[C@@H]2O[C@H](C)C[C@H](N(C)C)[C@H]2O)[C@](C)(OC)C[C@@H](C)/C(=N\OCC#Cc2ccc(N)nc2)[C@H](C)[C@H]2OC(=O)O[C@@]21C
[1]
  MIC: 32 µg/mL (≈ 36.4 µM)
[2]
  MIC: 2 µg/mL (≈ 2.27 µM)
[3]
  MIC: 0.008 µg/mL (≈ 0.00909 µM)
[4]
  MIC: 0.5 µg/mL (≈ 0.568 µM)
[5]
  MIC: 0.5 µg/mL (≈ 0.568 µM)
[6]
  MIC: 1 µg/mL (≈ 1.14 µM)
[7]
  MIC: > 64 µg/mL

## CC[C@H]1OC(=O)[C@H](C)[C@@H](OC(=O)Cc2ccccn2)[C@H](C)[C@@H](O[C@@H]2O[C@H](C)C[C@H](N(C)C)[C@H]2O)[C@](C)(OC)C[C@@H](C)/C(=N\OC/C=C/c2ccc(NC(=O)Cc3ccccn3)nc2)[C@H](C)[C@H]2OC(=O)O[C@@]21C
[1]
  MIC: > 64 µg/mL
[2]
  MIC: 2 µg/mL (≈ 2 µM)
[3]
  MIC: 0.125 µg/mL (≈ 0.125 µM)
[4]
  MIC: 4 µg/mL (≈ 4 µM)
[5]
  MIC: 2 µg/mL (≈ 2 µM)
[6]
  MIC: 8 µg/mL (≈ 7.99 µM)
[7]
  MIC: > 64 µg/mL

## CC[C@H]1OC(=O)[C@H](C)[C@@H](OC(=O)Cc2ccccn2)[C@H](C)[C@@H](O[C@@H]2O[C@H](C)C[C@H](N(C)C)[C@H]2O)[C@](C)(OC)C[C@@H](C)/C(=N\OCC#Cc2ccc([N+](=O)[O-])nc2)[C@H](C)[C@H]2OC(=O)O[C@@]21C
[1]
  MIC: > 64 µg/mL
[2]
  MIC: 1 µg/mL (≈ 1.1 µM)
[3]
  MIC: 0.031 µg/mL (≈ 0.0341 µM)
[4]
  MIC: 0.25 µg/mL (≈ 0.275 µM)
[5]
  MIC: 0.5 µg/mL (≈ 0.549 µM)
[6]
  MIC: 0.5 µg/mL (≈ 0.549 µM)
[7]
  MIC: > 64 µg/mL

## CC[C@H]1OC(=O)[C@H](C)[C@@H](O[C@H]2C[C@@](C)(OC)[C@@H](O)[C@H](C)O2)[C@H](C)[C@@H](O[C@@H]2O[C@H](C)C[C@H](N(C)C)[C@H]2O)[C@](C)(OC)C[C@@H](C)C(=O)[C@H](C)[C@@H](O)[C@]1(C)O [CLARITHROMYCIN]
[1]
  MIC: 4 µg/mL (≈ 5.35 µM)
[2]
  MIC: > 64 µg/mL
[8]
  MBC: 32 µg/mL (≈ 42.8 µM)
[3]
  MIC: 0.062 µg/mL (≈ 0.0829 µM)
[9]
  MBC: > 16 µg/mL
[4]
  MIC: 32 µg/mL (≈ 42.8 µM)
[10]
  MBC: 8 µg/mL (≈ 10.7 µM)
[11]
  Ratio: 2
[12]
  Ratio: >2
[13]
  MIC: 16 µg/mL (≈ 21.4 µM)
[14]
  MBC: 0.25 µg/mL (≈ 0.334 µM)
[5]
  MIC: 2 µg/mL (≈ 2.67 µM)
[15]
  Ratio: 2
[16]
  Ratio: >8
[6]
  MIC: 4 µg/mL (≈ 5.35 µM)
[17]
  Ratio: 8
[7]
  MIC: > 64 µg/mL
[18]
  MBC: > 8 µg/mL
[19]
  MIC: 0.125 µg/mL (≈ 0.167 µM)

## CC[C@H]1OC(=O)[C@H](C)[C@@H](OC(=O)Cc2ccccn2)[C@H](C)[C@@H](O[C@@H]2O[C@H](C)C[C@H](N(C)C)[C@H]2O)[C@](C)(OC)C[C@@H](C)/C(=N\OCC#Cc2ccc(-n3ccnc3)cc2)[C@H](C)[C@H]2OC(=O)O[C@@]21C
[1]
  MIC: > 256 µg/mL
[8]
  MBC: 8 µg/mL (≈ 8.6 µM)
[3]
  MIC: 0.125 µg/mL (≈ 0.134 µM)
[9]
  MBC: > 16 µg/mL
[4]
  MIC: 2 µg/mL (≈ 2.15 µM)
[20]
  Ratio: 2
[21]
  Ratio: 2
[11]
  Ratio: 8
[22]
  Ratio: 2
[12]
  Ratio: >8
[13]
  MIC: 1 µg/mL (≈ 1.08 µM)
[14]
  MBC: 8 µg/mL (≈ 8.6 µM)
[5]
  MIC: 2 µg/mL (≈ 2.15 µM)
[15]
  Ratio: 2
[23]
  MBC: 0.25 µg/mL (≈ 0.269 µM)
[16]
  Ratio: >8
[6]
  MIC: 0.062 µg/mL (≈ 0.0667 µM)
[24]
  MBC: 4 µg/mL (≈ 4.3 µM)
[25]
  MBC: 64 µg/mL (≈ 68.8 µM)
[7]
  MIC: 32 µg/mL (≈ 34.4 µM)
[18]
  MBC: > 0.5 µg/mL
[19]
  MIC: 4 µg/mL (≈ 4.3 µM)

Source: ChEMBL document CHEMBL3611985, “Synthesis and structure-activity relationships of novel 9-oxime acylides with improved bactericidal activity” (2015)
